Source: patent US20140057884A1, “PHARMACEUTICAL COMPOSITION FOR PREVENTING OR TREATING LIVER CANCER COMPRISING STIGMASTEROL AND 5 BETA-HYDROXYSITOSTANOL ISOLATED FROM NAVICULA INCERTA” (PUKYONG NATIONAL UNIVERSITY INDUSTRY-UNIVERSITY CO, priority 2012, published 2014)
Like-named read-outs stand apart in the source and are kept apart here.

Assays:
Assay type in all cases: cell-based, human
[1] = system: HepG2 cells; assay: RT-PCR analysis of mRNA expression of apoptosis-related genes
Description: HepG2 cells treated with stigmasterol and 5β-hydroxysitostanol were treated with TRIzol® reagent were transferred to microtubes at each concentration. 200 μl, of chloroform was added to each tube and microtubes were centrifuged at 12,000×g for 15 min. After centrifugation, supernatant phase was transferred to a new microtube and mixed with isopropanol at the ratio of 1:1. After incubation for 10 min at room temperature and centrifugation at 12,000×g for 10 min, supernatant was discarded and RNA pellet was washed, followed by centrifugation at 12,000×g for 15 min. Following removal of ethanol, RNA pellet was suspended in DEPC-treated water and so that RNA pellet was dissolved at 55° C. for 10 min. Dissolved RNA pellet was kept at −20° C. for further experiments.
RT-PCR was performed to check specific mRNA expression in HepG2 cells.
Thirteen μg of RNA dissolved in DEPC— treated water and 2 μL of oligo (di) were added to PCR microtubes and denaturated at 70° C. for 5 min in a thermal cycler. Later, RT-PCR mastermix was added to microtubes to synthesize cDNA. Primers corresponding to specific RNA were bound to the synthesized cDNA, and gene amplification was carried out with the thermal cycler. The PCR products were electrophoresed on 1% agarose gel and bands of the respective primers were checked with UV.

[2] = MTT cell viability assay; conditions: human
Description: (§1) Cell viability was measured using MTT [3-(4,5-dimethylthiazol-2-yl)-2,5-diphenyltetrazolium bromide] assay utilizing […] MTT is reduced to purple formazan by the action of mitochondrial dehydrogenase which has viability only in living cells.
(§2) The HepG2 cells were grown in 96-well plates at a density of 2×10^4 cells/well. After 24 h, cells were treated with different concentrations ([…], 20 μM) of stigmasterol and 5β-hydroxysitostanol. After incubation for 24 h, the cells were incubated with 100 μL of MTT (1 mg/mL) for 4 h. Finally, DMSO was added so that the amount of formazan crystal was determined by measuring the absorbance at 550 nm using a multidetection microplate reader.

[3] = system: HepG2 cells; assay: MTT cell viability assay; conditions: for cell viability with increasing concentrations: HepG2 cells, 5-20 μM, 24 h
Description: as §1, §2

[4] = system: HepG2 cells; assay: Observation of morphological changes of the cells (light microscope; fluorescence microscope after Hoechst 33342 staining); conditions: 24 h; for shape of the attached HepG2 cells / number of attached cells (living cells): light microscope; for nuclei of the attached HepG2 cells: increasing concentrations (5, 10, 20 μM), Hoechst 33342, fluorescence microscope; for number of attached cells (living cells): increasing doses
Description: HepG2 ells were grown in 12-well plates at a density of 2×10^4 cells/well. After overnight incubation, cells were treated with different concentrations ([…], 20 μM) of stigmasterol and 5β-hydroxysitostanol and incubated for another 24 h. The cells were washed with PBS. After washing, 4% (v/v) formaldehyde solution was dissolved in PBS and added to the plate, and left for 1 h at room temperature. The fixed cells were detected by a light microscope.
Further, the HepG2 cells were grown in 12-well plates at a density of 2×10^4 cells/well. After overnight incubation, cells were treated with different concentrations (5 μM, 10 μM, 20 μM) of stigmasterol and 5β-hydroxysitostanol and incubated for another 24 h. The cells were then washed with PBS. After washing, 4% (v/v) formaldehyde solution was dissolved in PBS and added to the plate, and left for 1 h at room temperature so that cells were fixated. The fixed cells were stained with staining dye, Bisbenzimide Hoechst 33342 and left for 1 h at room temperature. The stained cells were observed under fluorescence microscope.

[5] = system: HepG2 cells; assay: Cell cycle analysis (PI staining, FACS); conditions: for G2/M phase of the cell cycle as the concentration increased: HepG2 cells, 5, 10, 20 μM; for G2/M phase of the cell cycle: HepG2 cells, highest concentration (20 μM)
Description: The HepG2 cells were cultured in 6 cm^2 dishes treated with different concentrations (5 μM, 10 μM, 20 μM) of stigmasterol and 5β-hydroxysitostanol. The cells were stained with propidium iodide (PI), and the cell cycle was analyzed by measuring the amount of DNA with FACS.

[6] = system: HepG2 cells; assay: Western blotting assay; conditions: HepG2 cells, 5, 10, 20 μM, 24 h, Western blot
Description: Western blotting assay was performed to investigate specific […] expression of HepG2 cells.
HepG2 cells were cultured at a density of 1×10^4 cells/ml in 10 cm^2 culture dishes for 24 h. The cells were then treated with different concentrations (5 μM, 10 μM, 20 μM) of stigmasterol and 5β-hydroxysitostanol for 24 h. The cells were lysed in cell lysis buffer to give protein extract. The extracted protein was separated by molecular weight using SDS electrophoresis. Corresponding antibodies were attached to intended protein and the protein bands were detected with ECL solution using LAS-3000 system.

Compound | expression of cell apoptosis inducing factors caspase-8, 9, Bax, p53, p21, FAS and FASL [1] | expression of cell apoptosis inhibiting factors Bcl-2 and XIAP [1] | cytotoxicity at 24 h, 5 μM ([2]; HepG2 cells, 5 μM, 24 h, MTT, read-out: inhibition of cell viability (rate)) | cytotoxicity at 24 h, 10 μM ([2]; HepG2 cells, 10 μM, 24 h, MTT, read-out: inhibition of cell viability (rate)) | cytotoxicity at 24 h, 20 μM ([2]; HepG2 cells, 20 μM, 24 h, MTT, read-out: inhibition of cell viability (rate)) | cell viability with increasing concentrations [3] | shape of the attached HepG2 cells [4] | nuclei of the attached HepG2 cells [4] | number of attached cells (living cells) [4] | G2/M phase of the cell cycle as the concentration increased [5] | G2/M phase of the cell cycle [5] | expression of cell apoptosis inducing factors caspase-8, 9 [6] | expression of caspase-8, Bax and FASL [1] | cytotoxicity at 24 h, 5 μM [2] | cytotoxicity at 24 h, 10 μM [2] | cytotoxicity at 24 h, 20 μM [2] | cytotoxicity according to concentration [3]
CC[C@H](/C=C/[C@@H](C)[C@H]1CC[C@H]2[C@@H]3CC=C4C[C@@H](O)CC[C@]4(C)[C@H]3CC[C@]12C)C(C)C [stigmasterol] | upregulates | downregulates | ~40% | ~43% | ~54% | dose-dependent decrease | shrinkage | significantly condensed | remarkably reduced | increased | 26.87% | upregulate | – | – | – | – | –
CCC(CCC(C)C1CCC2C3CCC4(O)CC(O)CCC4(C)C3CCC12C)C(C)C (stereo not drawn) [5β-hydroxysitostanol] | – | – | – | – | – | dose-dependent decrease | shrinkage | significantly condensed | remarkably reduced | increased | 25.83% | upregulate | upregulates | ~6% | ~9% | ~15% | no cytotoxicity
